Measured values published in patent US20100086931A1, “METHOD FOR ASSAYING ACTION OF ANTITUMOR AGENT USING DECREASE IN GENE EXPRESSION LEVEL AS INDEX” (Eisai R&D Management Co., Ltd., priority 2007, published 2010).

Tested on: peripheral blood mononuclear cells (PBMC)
Assay: Microarray analysis (Human Genome U133 plus 2.0 array) of mRNA expression in PBMC treated with compound A
Type: cell-based
Settings: 100 nM, ratio to control
Source text: Since it is not easy to obtain a cancer tissue clinically, the measurement of the marker in hemocytes readily obtainable in peripheral blood would be more useful. Specifically blood was taken from a normal individual (volunteer) and peripheral blood mononuclear cells were purified and treated with compound A, followed by measurement of change in expression of the gene (mRNA) with the microarray (Human Genome […] plus 2.0 array: Affymetrix).
Ficoll-Paque PLUS solution (Amersham, 17-1440-02) was slowly added to the blood taken (with heparin added) from a healthy individual to form a layer underneath the blood (15 ml of Ficoll-Paque PLUS solution was added to 25 ml of blood). After the mixture was centrifuged at 1500 rpm for 30 min, the upper part containing platelets was removed and then a layer containing mononuclear cells was transferred to another tube. The cells were suspended in PBS and centrifuged at 1500 rpm for 5 min, followed by removal of the supernatant. After these steps were repeated twice, the cells were again suspended in RPMI1640 (containing 10% FBS). The number of the cells was then counted.
The cells were suspended in the medium to 5×10^6 cells/ml and plated 1 ml per well of a 24-well plate. Immediately, 111 μl of compound A (ten times more concentrated than the final concentrations) was added to the well (four wells per each concentration tested). The cells were then cultured in an incubator with 5% carbon dioxide gas at 37° C. Two or four hours later, the supernatant was collected and centrifuged at 1500 rpm for five minutes. TRI reagent (SIGMA) (1 ml) was added to each well of the plate from which the supernatant was removed to harvest the cells, which was added to the centrifuged pellet to dissolve. RNA was purified in accordance with the protocol of TRI reagent. RNA was further purified using RNeasy (QIAGEN). Absorbance at 260 nm was measured to quantify an amount of RNA.
A .cel file for each sample was obtained by using GeneChip Operating Software Ver.1.2 (Affymetrix). The RMA method was applied to ten of the .cel files obtained in the microarray experiment. Log signal intensity at a gene level was obtained by normalization of that at a probe level. By subtracting a control value from log signal intensity for each case, the log signal intensity was converted into a log signal ratio to the control. Genes were narrowed down in the basis of a log signal ratio, and a signal value. Specifically, among genes showing that the P value was 5% or less; the expression level in the untreated (control) is 100 or more by signal value; and the expression level when treated with 10 nM of compound A both for two and four hours decreased by 50% or more, genes of which expression level decreased to 25% or less upon the two-hour treatment were picked out. The software used is R2.2.1 (http://www.r-project.org/), affy package 1.8.1 (http://www.bioconductor.org).
Among genes showing, upon the treatment with compound A, that the P value was 5% or less; the expression level in the untreated (control) is 100 or more by signal value; and the expression level when treated with 10 nM of compound A both for two and four hours decreased by 50% or more, genes of which expression level decreased to 25% or less upon the two-hour treatment, and results thereof were shown in Table 2. For each gene evaluated, gene name (Gene Name), abbreviated name (Gene Symbol), accession number (Accession), alias name (Synonym), Probe set number in Human Genome U133 Plus 2.0 Array (Human Genome U133 Plus 2.0 Array Probeset ID), the expression level upon the two-hour treatment with E7107 (E7107 (2 h)), and the expression level upon the four-hour treatment with E7107 (E7107 (4 h)) were respectively shown in Table 2.

## CCC(O)C(C)C1OC1CC(C)(O)/C=C/C=C(\C)C1OC(=O)CC(O)CCC(C)(O)C(OC(=O)N2CCN(C3CCCCCC3)CC2)/C=C/C1C (stereo not drawn) [E7107, (8E,12E,14E)-7-((4-Cycloheptylpiperazin-1-yl)carbonyl)oxy-3,6,16,21-tetrahydroxy-6,10,12,16,20-pentamethyl-18,19-epoxytricosa-8,12,14-trien-11-olide]
2 h
  AHSA2 mRNA expression level (226665_at): 0.20
  ATXN1 mRNA expression level (242230_at): 0.25
  C13orf31 mRNA expression level (228937_at): 0.04
  C15orf48 mRNA expression level (223484_at): 0.02
  CCRL2//LOC642312 mRNA expression level (211434_s_at): 0.22
  CLEC5A mRNA expression level (219890_at): 0.08
  CSF2RA mRNA expression level (210340_s_at): 0.08
  CTSL1 mRNA expression level (202087_s_at): 0.20
  DHRS9 mRNA expression level (223952_x_at): 0.18
  DOK3 mRNA expression level (223553_s_at): 0.30
  FPRL2 mRNA expression level (230422_at): 0.05
  GNA15 mRNA expression level (205349_at): 0.11
  GPR84 mRNA expression level (223767_at): 0.19
  GTF2H1 mRNA expression level (202451_at): 0.07
  HNRPA2B1 mRNA expression level (225107_at): 0.07
  HPSE mRNA expression level (222881_at): 0.13
  IQCG mRNA expression level (235347_at): 0.08
  LOC51315 mRNA expression level (233329_s_at): 0.11
  MS4A7 mRNA expression level (224358_s_at): 0.22
  NLRP12 mRNA expression level (1554952_s_at): 0.24
  NRIP3 mRNA expression level (219557_s_at): 0.11
  NSMCE4A mRNA expression level (228506_at): 0.19
  OLR1 mRNA expression level (210004_at): 0.01
  RAPH1 mRNA expression level (225188_at): 0.05
  RBBP6 mRNA expression level (212781_at): 0.12
  SLC25A19 mRNA expression level (223222_at): 0.17
  SLC43A2 mRNA expression level (228918_at): 0.17
  TNFAIP6 mRNA expression level (206026_s_at): 0.07
  TNS1 mRNA expression level (221748_s_at): 0.09
  TRAPPC4 mRNA expression level (217959_s_at): 0.08
  Transcribed locus mRNA expression level (230098_at): 0.08
  WSB1 mRNA expression level (201294_s_at): 0.29
  ZCCHC6 mRNA expression level (220933_s_at): 0.14
4 h
  AHSA2 mRNA expression level (226665_at): 0.23
  ATXN1 mRNA expression level (242230_at): 0.13
  C13orf31 mRNA expression level (228937_at): 0.06
  C15orf48 mRNA expression level (223484_at): 0.01
  CCRL2//LOC642312 mRNA expression level (211434_s_at): 0.29
  CLEC5A mRNA expression level (219890_at): 0.01
  CSF2RA mRNA expression level (210340_s_at): 0.10
  CTSL1 mRNA expression level (202087_s_at): 0.13
  DHRS9 mRNA expression level (223952_x_at): 0.12
  DOK3 mRNA expression level (223553_s_at): 0.35
  FPRL2 mRNA expression level (230422_at): 0.02
  GNA15 mRNA expression level (205349_at): 0.15
  GPR84 mRNA expression level (223767_at): 0.38
  GTF2H1 mRNA expression level (202451_at): 0.02
  HNRPA2B1 mRNA expression level (225107_at): 0.10
  HPSE mRNA expression level (222881_at): 0.11
  IQCG mRNA expression level (235347_at): 0.05
  LOC51315 mRNA expression level (233329_s_at): 0.06
  MS4A7 mRNA expression level (224358_s_at): 0.03
  NLRP12 mRNA expression level (1554952_s_at): 0.20
  NRIP3 mRNA expression level (219557_s_at): 0.24
  NSMCE4A mRNA expression level (228506_at): 0.19
  OLR1 mRNA expression level (210004_at): 0.00
  RAPH1 mRNA expression level (225188_at): 0.10
  RBBP6 mRNA expression level (212781_at): 0.17
  SLC25A19 mRNA expression level (223222_at): 0.18
  SLC43A2 mRNA expression level (228918_at): 0.08
  TNFAIP6 mRNA expression level (206026_s_at): 0.02
  TNS1 mRNA expression level (221748_s_at): 0.06
  TRAPPC4 mRNA expression level (217959_s_at): 0.04
  Transcribed locus mRNA expression level (230098_at): 0.08
  WSB1 mRNA expression level (201294_s_at): 0.25
  ZCCHC6 mRNA expression level (220933_s_at): 0.06
